{"source": "patent US20260248752A1", "about": "“Oral Care Product And Methods Of Use And Manufacture Thereof” (Colgate-Palmolive Company, priority 2019, published 2026)", "type_in_all_cases": "cell-based, Streptococcus mutans", "key": {"S. mutans biofilm [1]": {"tested_on": "S. mutans biofilm", "assay": "pH drop of S. mutans biofilm from glycolysis (total AUC of delta pH)", "settings": "for Total AUC of Δ pH: after 24 hours of exposure and addition of growth media, lower AUC = less pH reduction; for Δ (vs control) of total AUC of Δ pH: difference from control (no arginine or xylitol) AUC 29.5", "excerpt": "Such drops in pH can be harmful to the health of the oral cavity."}, "S. mutans": {"tested_on": "S. mutans", "assay": "Growth inhibition of S. mutans in culture by neat solutions of xylitol and/or arginine", "settings": "24 hours after administration of neat solutions, absence of added sucrose", "procedure": "The ability of xylitol to inhibit the growth of S. mutans is tested in combination with arginine in culture. Percent growth inhibition is measured at 24 hours after administration of the neat solutions listed in the below table.\nResults in Table 2 are obtained in the absence of added sucrose."}, "planktonic S. mutans": {"tested_on": "planktonic S. mutans", "assay": "Minimum inhibitory concentration of xylitol, planktonic S. mutans growth (OD 610 nm)", "settings": "for growth of S. mutans, optical density (OD 610 nm), mean: 24 hours of exposure", "procedure": "Determining Minimum Inhibitory Concentration (MIC) of Xylitol: In a separate experiment, simple solutions with only xylitol at varying concentrations, tested in combination with a control, are also tested to determine the minimum inhibitor concentration of xylitol needed to inhibit planktonic S. mutans growth in culture."}, "S. mutans biofilm [2]": {"tested_on": "S. mutans biofilm", "assay": "S. mutans biofilm formation by crystal violet staining (OD 590 nm)", "settings": "for S. mutans biofilm formation, crystal violet staining (OD 590 nm), mean: 24 hours of exposure", "procedure": "Determining Biofilm Formation with varying amounts of Xylitol: In a separate experiment, simple solutions with only xylitol at varying concentrations, tested in combination with a control, are also tested to determine the minimum amount of xylitol needed to prevent S. mutans biofilm accretion in culture. It is determined that at least 5% xylitol is necessary to inhibit biofilm accretion in culture after 24 hours of exposure."}, "[3]": {"settings": "in culture after 24 hours of exposure"}}}
{"smiles": "N=C(N)NCCC[C@H](N)C(=O)O", "note": "[1.5% arginine, arginine]", "values": [{"measurement": "Total AUC of Δ pH", "setting": "S. mutans biofilm [1]", "result": 28.9}, {"measurement": "Δ (vs control) of total AUC of Δ pH", "setting": "S. mutans biofilm [1]", "result": 0.6}, {"measurement": "% growth inhibition relative to control", "setting": "S. mutans", "result": 4.1, "unit": "%"}]}
{"smiles": "OC[C@@H](O)[C@H](O)[C@@H](O)CO", "note": "[Xylitol]", "values": [{"measurement": "minimum inhibitory concentration of xylitol needed to inhibit planktonic S. mutans growth", "setting": "planktonic S. mutans; [3]", "result": "at least 10%"}, {"measurement": "growth of S. mutans, optical density (OD 610 nm), mean", "setting": "planktonic S. mutans; xylitol 0.15625%", "result": 0.256}, {"measurement": "growth of S. mutans, optical density (OD 610 nm), mean", "setting": "planktonic S. mutans; xylitol 0.3125%", "result": 0.268}, {"measurement": "growth of S. mutans, optical density (OD 610 nm), mean", "setting": "planktonic S. mutans; xylitol 0.625%", "result": 0.241}, {"measurement": "growth of S. mutans, optical density (OD 610 nm), mean", "setting": "planktonic S. mutans; xylitol 1.25%", "result": 0.188}, {"measurement": "growth of S. mutans, optical density (OD 610 nm), mean", "setting": "planktonic S. mutans; xylitol 2.5%", "result": 0.165}, {"measurement": "growth of S. mutans, optical density (OD 610 nm), mean", "setting": "planktonic S. mutans; xylitol 5%", "result": 0.114}, {"measurement": "growth of S. mutans, optical density (OD 610 nm), mean", "setting": "planktonic S. mutans; xylitol 10%", "result": 0.097}, {"measurement": "growth of S. mutans, optical density (OD 610 nm), mean", "setting": "planktonic S. mutans; xylitol 20%", "result": 0.089}, {"measurement": "growth of S. mutans, optical density (OD 610 nm), mean", "setting": "planktonic S. mutans; xylitol 40%", "result": 0.071}, {"measurement": "minimum amount of xylitol needed to prevent S. mutans biofilm accretion", "setting": "S. mutans biofilm [2]; [3]", "result": "at least 5%"}, {"measurement": "S. mutans biofilm formation, crystal violet staining (OD 590 nm), mean", "setting": "S. mutans biofilm [2]; xylitol 0.15625%", "result": 0.327}, {"measurement": "S. mutans biofilm formation, crystal violet staining (OD 590 nm), mean", "setting": "S. mutans biofilm [2]; xylitol 0.3125%", "result": 0.338}, {"measurement": "S. mutans biofilm formation, crystal violet staining (OD 590 nm), mean", "setting": "S. mutans biofilm [2]; xylitol 0.625%", "result": 0.301}, {"measurement": "S. mutans biofilm formation, crystal violet staining (OD 590 nm), mean", "setting": "S. mutans biofilm [2]; xylitol 1.25%", "result": 0.254}, {"measurement": "S. mutans biofilm formation, crystal violet staining (OD 590 nm), mean", "setting": "S. mutans biofilm [2]; xylitol 2.5%", "result": 0.221}, {"measurement": "S. mutans biofilm formation, crystal violet staining (OD 590 nm), mean", "setting": "S. mutans biofilm [2]; xylitol 5%", "result": 0.136}, {"measurement": "S. mutans biofilm formation, crystal violet staining (OD 590 nm), mean", "setting": "S. mutans biofilm [2]; xylitol 10%", "result": 0.122}, {"measurement": "S. mutans biofilm formation, crystal violet staining (OD 590 nm), mean", "setting": "S. mutans biofilm [2]; xylitol 20%", "result": 0.123}, {"measurement": "S. mutans biofilm formation, crystal violet staining (OD 590 nm), mean", "setting": "S. mutans biofilm [2]; xylitol 40%", "result": 0.109}, {"measurement": "Total AUC of Δ pH", "setting": "S. mutans biofilm [1]; listed as 1% xylitol", "result": 27.8}, {"measurement": "Total AUC of Δ pH", "setting": "S. mutans biofilm [1]; listed as 5% xylitol", "result": 25.3}, {"measurement": "Total AUC of Δ pH", "setting": "S. mutans biofilm [1]; listed as 10% xylitol", "result": 24.0}, {"measurement": "Δ (vs control) of total AUC of Δ pH", "setting": "S. mutans biofilm [1]; listed as 1% xylitol", "result": 1.7}, {"measurement": "Δ (vs control) of total AUC of Δ pH", "setting": "S. mutans biofilm [1]; listed as 5% xylitol", "result": 4.2}, {"measurement": "Δ (vs control) of total AUC of Δ pH", "setting": "S. mutans biofilm [1]; listed as 10% xylitol", "result": 5.5}, {"measurement": "% growth inhibition relative to control", "setting": "S. mutans; listed as 1% xylitol", "result": 17.9, "unit": "%"}, {"measurement": "% growth inhibition relative to control", "setting": "S. mutans; listed as 5% xylitol", "result": 40.3, "unit": "%"}, {"measurement": "% growth inhibition relative to control", "setting": "S. mutans; listed as 10% xylitol", "result": 45.6, "unit": "%"}]}
